The values that follow come from PubChem BioAssay AID1963869 (Molecular Pharmacology Branch, DTP, NCI, 2024).

One may read the IC50 as the midpoint of a concentration-inhibition curve. By viability, T/C is commonly meant the result in the treated group divided by that in the control group, in per cent.

In this assay the test system is KRAS patient-derived spheroids with HUVEC/MSC, viability. Put plainly: Anticancer human tumor 323965-272-R-J2-PDC patient-derived pancreatic carcinoma cell line growth inhibition [KRAS2]. The conditions noted are these: for viability, T/C: stronger effect = lower value. In outline: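 Combination screen of spheroid viability in tumor-cell co-cultures with endothelial (HUVEC) and mesenchymal stem cell stroma. Each agent was tested in half-log dilutions, topping at clinical Cmax or at 10 microM without a known Cmax.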

Setting [1] is: curve of first compound, second compound 0.1 µM.
Where [2] appears, read: curve of first compound, second compound 0.316 µM.
Setting [3] is: curve of first compound, second compound 1 µM.
Setting [4] is: curve of first compound, second compound 3.16 µM.
The mark [5] stands for this setting: second compound 0.1 µM, first compound 0.0316 µM.
Where [6] appears, read: second compound 0.1 µM, first compound 0.1 µM.
Where [7] appears, read: second compound 0.1 µM, first compound 0.316 µM.
Where [8] appears, read: second compound 0.1 µM, first compound 1 µM.
Setting [9] is: second compound 0.1 µM, first compound 3.16 µM.
Where [10] appears, read: second compound 0.1 µM, first compound 10 µM.
The mark [11] stands for this setting: second compound 0.316 µM, first compound 0.0316 µM.
Setting [12] is: second compound 0.316 µM, first compound 0.1 µM.
Where [13] appears, read: second compound 0.316 µM, first compound 0.316 µM.
Where [14] appears, read: second compound 0.316 µM, first compound 1 µM.
Setting [15] is: second compound 0.316 µM, first compound 3.16 µM.
[16] abbreviates: second compound 0.316 µM, first compound 10 µM.
Setting [17] is: second compound 1 µM, first compound 0.0316 µM.
Where [18] appears, read: second compound 1 µM, first compound 0.1 µM.
[19] abbreviates: second compound 1 µM, first compound 0.316 µM.
Where [20] appears, read: second compound 1 µM, first compound 1 µM.
The mark [21] stands for this setting: second compound 1 µM, first compound 3.16 µM.
Setting [22] is: second compound 1 µM, first compound 10 µM.
Where [23] appears, read: second compound 3.16 µM, first compound 0.0316 µM.
[24] abbreviates: second compound 3.16 µM, first compound 0.1 µM.
Setting [25] is: second compound 3.16 µM, first compound 0.316 µM.
Setting [26] is: second compound 3.16 µM, first compound 1 µM.
[27] abbreviates: second compound 3.16 µM, first compound 3.16 µM.
Where [28] appears, read: second compound 3.16 µM, first compound 10 µM.
[29] abbreviates: curve of first compound, second compound 0.0316 µM.
Where [30] appears, read: second compound 0.0316 µM, first compound 0.0316 µM.
[31] abbreviates: second compound 0.0316 µM, first compound 0.1 µM.
Where [32] appears, read: compound alone, run of 08/26/2021.
[33] abbreviates: compound alone, run of 09/02/2021.
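Note: spheroids exposed to agents for 7 days.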
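Throughout, for viability, T/C: 100% = DMSO vehicle control viability.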

Take `Cn1nccc1Nc1nccc(-c2cc3c(s2)C(C)(C)N(CCN2CCOCC2)C3=O)n1` + C=CC(=O)N1CCN(c2nc(=O)n(-c3c(C)ccnc3C(C)C)c3nc(-c4c(O)cccc4F)c(F)cc23)C(C)C1: the half-inhibitory concentration (IC50) under setting [1] stood at 67.8 nM; the IC50 under setting [2] is < 31.6 nM; the IC50 under setting [3] is < 31.6 nM; the IC50 under setting [4] was > 10000 nM; the IC50 (curve of first compound, second compound 10 µM) is < 31.6 nM. Also, the viability, T/C by setting is: under setting [5], 52%; under setting [6], 49.4%; under setting [7], 46.8%; under setting [8], 38.2%; under setting [9], 32.6%; under setting [10], 36%. The viability, T/C under setting [11] is 48.3%; the viability, T/C under setting [12] was 48%; the viability, T/C under setting [13] is 41.8%; the viability, T/C under setting [14] was 46.1%; the viability, T/C under setting [15] is 40%; the viability, T/C under setting [16] was 42.4%. The viability, T/C runs as follows: under setting [17], 53.8%; under setting [18], 50%; under setting [19], 45.1%; under setting [20], 43.2%; under setting [21], 43.9%; under setting [22], 60.7%. The viability, T/C is 51.5% under setting [23]; 53% under setting [24]; 48% under setting [25]; 47.6% under setting [26]; 51.3% under setting [27]; 71.1% under setting [28]. For the same compound, the viability, T/C is, setting by setting: (second compound 10 µM, first compound 0.0316 µM) 45.7%; (second compound 10 µM, first compound 0.1 µM) 45.2%; (second compound 10 µM, first compound 0.316 µM) 42.6%; (second compound 10 µM, first compound 1 µM) 42.5%; (second compound 10 µM, first compound 3.16 µM) 43.3%; (second compound 10 µM, first compound 10 µM) 53.6%.
With `Cn1nccc1Nc1nccc(-c2cc3c(s2)C(C)(C)N(CCN2CCOCC2)C3=O)n1` + C=CC(=O)N1CCN(c2nc(OCC3CCCN3C)nc3c2CCN(c2cccc4cccc(C)c24)C3)CC1CC#N, the IC50 by setting is: under setting [29], 387 nM; under setting [1], < 31.6 nM; under setting [2], 58.5 nM; under setting [3], < 31.6 nM; under setting [4], < 31.6 nM. Moreover, the viability, T/C is, setting by setting: under setting [30], 59.9%; under setting [31], 59.8%; (second compound 0.0316 µM, first compound 0.316 µM) 50.2%; (second compound 0.0316 µM, first compound 1 µM) 43.2%; (second compound 0.0316 µM, first compound 3.16 µM) 31.5%; (second compound 0.0316 µM, first compound 10 µM) 32.5%. Moreover, the viability, T/C runs as follows: under setting [5], 49.1%; under setting [6], 49.1%; under setting [7], 39.2%; under setting [8], 36.4%; under setting [9], 32.1%; under setting [10], 36.4%. Besides, the viability, T/C is, setting by setting: under setting [11], 55.5%; under setting [12], 44.9%; under setting [13], 40%; under setting [14], 37.4%; under setting [15], 30.8%; under setting [16], 35.5%. Moreover, the viability, T/C runs as follows: under setting [17], 45.5%; under setting [18], 41.8%; under setting [19], 45.8%; under setting [20], 35.7%; under setting [21], 28.9%; under setting [22], 29.5%. Further, the viability, T/C was 3.69% under setting [23]; 4.06% under setting [24]; 2.62% under setting [25]; 0.91% under setting [26]; 0.72% under setting [27]; 0.53% under setting [28].
With `CC(C)n1nc(-c2ccc3oc(N)nc3c2)c2c(N)ncnc21` + C=CC(=O)N1CCN(c2nc(OCC3CCCN3C)nc3c2CCN(c2cccc4cccc(C)c24)C3)CC1CC#N, the IC50 by setting is: under setting [29], 0.596 nM; under setting [1], 0.419 nM; under setting [2], < 0.316 nM; under setting [3], < 0.316 nM; under setting [4], < 0.316 nM. In addition, the viability, T/C is, setting by setting: (second compound 0.0316 µM, first compound 0.000316 µM) 53%; (second compound 0.0316 µM, first compound 0.001 µM) 49.6%; (second compound 0.0316 µM, first compound 0.00316 µM) 30.5%; (second compound 0.0316 µM, first compound 0.01 µM) 26%; under setting [30], 17.2%; under setting [31], 14.5%. Moreover, the viability, T/C (second compound 0.1 µM, first compound 0.000316 µM) is 52%; the viability, T/C (second compound 0.1 µM, first compound 0.001 µM) was 43.7%; the viability, T/C (second compound 0.1 µM, first compound 0.00316 µM) was 30.9%; the viability, T/C (second compound 0.1 µM, first compound 0.01 µM) is 21.1%; the viability, T/C under setting [5] was 16.5%; the viability, T/C under setting [6] was 13.5%. Further, the viability, T/C reads like this: (second compound 0.316 µM, first compound 0.000316 µM) 45.9%; (second compound 0.316 µM, first compound 0.001 µM) 37.3%; (second compound 0.316 µM, first compound 0.00316 µM) 27.6%; (second compound 0.316 µM, first compound 0.01 µM) 18.7%; under setting [11], 14.8%; under setting [12], 12.1%. The viability, T/C reads like this: (second compound 1 µM, first compound 0.000316 µM) 49.9%; (second compound 1 µM, first compound 0.001 µM) 37.7%; (second compound 1 µM, first compound 0.00316 µM) 28.3%; (second compound 1 µM, first compound 0.01 µM) 17.6%; under setting [17], 13.9%; under setting [18], 11.1%. In addition, the viability, T/C runs as follows: (second compound 3.16 µM, first compound 0.000316 µM) 28.4%; (second compound 3.16 µM, first compound 0.001 µM) 9.51%; (second compound 3.16 µM, first compound 0.00316 µM) 15.1%; (second compound 3.16 µM, first compound 0.01 µM) 2.78%; under setting [23], 5.8%; under setting [24], 4.1%.
Take `C=CC(=O)N1CCN(c2nc(OCC3CCCN3C)nc3c2CCN(c2cccc4cccc(C)c24)C3)CC1CC#N` (stereo not given): the viability, T/C (compound 0.0316 µM) was 70.1% [middle of 17 runs]; the viability, T/C (compound 0.1 µM) was 60.4% [middle of 17 runs]; the viability, T/C (compound 1 µM) is 57.9% [middle of 17 runs]. Moreover, the 50% inhibitory concentration (IC50) by setting is: under setting [32], 1.07 µM [middle of 5 runs]; under setting [33], 1.12 µM [middle of 6 runs].
Turning to `COc1cc2nc(C)nc(NC(C)c3cc(N)cc(C(F)(F)F)c3)c2cc1OC1CCOC1` (stereo not given), the viability, T/C was 75.7% [middle of 17 runs] (compound 0.316 µM) and 77.2% [middle of 17 runs] (compound 3.16 µM). The concentration for half-maximal inhibition (IC50) (compound alone, run of 08/19/2021) was > 10000 nM; the IC50 under setting [32] is > 10000 nM; the IC50 under setting [33] is > 10000 nM.
